Where a name gives a salt, the structure may show the parent alone. Some results are limits rather than exact numbers.

Among the data in US20200291018A1, “TAM KINASE INHIBITORS” (SYROS PHARMACEUTICALS, INC., priority 2017, published 2020) are IC50 values, retold here.

The target of test [1] is T1, AXL (Homo sapiens, UniProt P30530).
T1 sequence (P30530 26-894): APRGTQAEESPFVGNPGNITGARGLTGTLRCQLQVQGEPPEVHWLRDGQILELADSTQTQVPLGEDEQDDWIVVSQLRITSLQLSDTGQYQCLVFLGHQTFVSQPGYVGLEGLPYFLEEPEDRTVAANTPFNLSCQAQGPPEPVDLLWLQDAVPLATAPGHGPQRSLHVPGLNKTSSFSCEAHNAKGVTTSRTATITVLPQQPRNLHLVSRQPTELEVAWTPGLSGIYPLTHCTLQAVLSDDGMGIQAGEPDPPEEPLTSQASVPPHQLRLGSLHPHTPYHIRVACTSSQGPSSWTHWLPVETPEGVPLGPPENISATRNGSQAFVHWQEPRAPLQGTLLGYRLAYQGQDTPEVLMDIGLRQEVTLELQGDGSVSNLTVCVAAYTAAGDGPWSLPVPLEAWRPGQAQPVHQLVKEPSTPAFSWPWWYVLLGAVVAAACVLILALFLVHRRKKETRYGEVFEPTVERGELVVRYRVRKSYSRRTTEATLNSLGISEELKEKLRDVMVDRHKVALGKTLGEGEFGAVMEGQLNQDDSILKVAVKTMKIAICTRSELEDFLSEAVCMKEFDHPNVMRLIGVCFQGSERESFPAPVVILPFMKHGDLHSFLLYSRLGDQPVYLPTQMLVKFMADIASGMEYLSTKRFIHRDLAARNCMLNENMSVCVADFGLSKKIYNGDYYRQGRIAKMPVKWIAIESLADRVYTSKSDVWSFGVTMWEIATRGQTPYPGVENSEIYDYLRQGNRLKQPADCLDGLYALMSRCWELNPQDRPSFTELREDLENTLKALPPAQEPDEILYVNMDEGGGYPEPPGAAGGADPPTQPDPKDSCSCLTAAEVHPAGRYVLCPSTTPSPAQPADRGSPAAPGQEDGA
As to the kind of experiment: TR-FRET kinase activity assay, AXL. Type of test: biochemical. As to conditions: ATP at Km, 60 minutes. The procedure, abridged: (§1)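 Each kinase phosphorylates a fluorescently labeled peptide on tyrosine in the presence of compound, with ATP at its Km, for 60 min at RT in HEPES pH 7.5 buffer with MgCl2, EGTA, Brij 35 and DTT. Product is detected by TR-FRET with a Europium-labeled phospho-specific antibody; IC50 values follow.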
(In general: Time-resolved FRET reads energy transfer from a long-lived donor to a nearby acceptor.)

For test [2], the target named is T2, TYRO3 (Homo sapiens, UniProt Q06418).
T2 sequence (Q06418 41-890): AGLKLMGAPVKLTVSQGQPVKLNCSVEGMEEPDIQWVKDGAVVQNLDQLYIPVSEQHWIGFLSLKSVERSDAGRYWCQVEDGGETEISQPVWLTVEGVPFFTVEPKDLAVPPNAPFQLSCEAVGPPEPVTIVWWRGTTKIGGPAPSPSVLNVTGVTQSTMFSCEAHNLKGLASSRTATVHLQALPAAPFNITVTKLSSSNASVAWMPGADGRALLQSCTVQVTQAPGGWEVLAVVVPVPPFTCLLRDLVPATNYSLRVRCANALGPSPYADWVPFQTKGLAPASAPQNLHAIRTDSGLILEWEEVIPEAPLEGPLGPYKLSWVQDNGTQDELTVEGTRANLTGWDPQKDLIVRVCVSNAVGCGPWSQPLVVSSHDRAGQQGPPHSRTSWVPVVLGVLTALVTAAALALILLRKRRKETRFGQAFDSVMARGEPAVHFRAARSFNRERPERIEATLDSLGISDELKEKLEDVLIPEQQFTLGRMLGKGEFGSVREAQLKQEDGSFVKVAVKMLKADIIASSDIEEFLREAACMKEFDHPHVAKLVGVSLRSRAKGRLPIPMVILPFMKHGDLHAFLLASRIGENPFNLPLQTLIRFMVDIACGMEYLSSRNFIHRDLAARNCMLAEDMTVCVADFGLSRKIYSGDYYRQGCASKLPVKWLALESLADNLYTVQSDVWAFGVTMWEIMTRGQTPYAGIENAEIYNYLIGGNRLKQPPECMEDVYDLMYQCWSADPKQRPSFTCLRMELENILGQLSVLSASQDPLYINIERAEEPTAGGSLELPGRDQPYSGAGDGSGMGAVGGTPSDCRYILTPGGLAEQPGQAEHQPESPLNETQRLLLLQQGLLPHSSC
As to the kind of experiment: TR-FRET kinase activity assay, TYRO3. Type of test: biochemical. The conditions noted are these: ATP at Km, 60 minutes. The procedure, abridged:
as §1

Consider `CCCCNc1ncc2c(=O)n(-c3ccc(CN4CCOCC4)cc3)cc([C@H]3CC[C@H](O)CC3)c2n1` [Compound 101], for which the IC50 in test [1] and in test [2] was 0.1 to 1 µM each time.

Take `CCCCNc1ncc2c(NCc3ccc(F)cc3)ncc([C@H]3CC[C@H](O)CC3)c2n1` [Compound 103, 4-[2-(butylamino)-5-[(4-fluorophenyl)methylamino]pyrido[4,3-d]pyrimidin-8-yl]cyclohexanol hydrochloride]: the IC50 (in general, the midpoint of a concentration-inhibition curve) in test [1] is 0.1 to 1 µM; in test [2], at most 0.1 µM.

For `CCCCNc1ncc2c(OC3CCOCC3)ncc([C@H]3CC[C@H](O)CC3)c2n1` [Compound 104, (1r,4r)-4-(2-(butylamino)-5-((tetrahydro-2H-pyran-4-yl)oxy)pyrido[4,3-d]pyrimidin-8-yl)cyclohexanol], the IC50 in test [1] and in test [2] was at most 0.1 µM throughout.

As for `CCCCNc1ncc2c(OC)ncc([C@H]3CC[C@H](O)CC3)c2n1` [Compound 127], the IC50 in test [1] and in test [2] was at most 0.1 µM throughout.

Consider `CCCC(C)Nc1ncc2c(=O)n(C3CCN(C(C)=O)CC3)cc([C@H]3CC[C@H](O)CC3)c2n1` (stereo partly shown) [Compound 128, 6-(1-acetylpiperidin-4-yl)-8-((1r,4r)-4-hydroxycyclohexyl)-2-(pentan-2-ylamino)pyrido[4,3-d]pyrimidin-5(6H)-one hydrochloride], for which the values for the IC50 in test [1] and in test [2] were 0.1 to 1 µM and at most 0.1 µM, respectively.

`CCCCNc1ncc2c(OC3CCNCC3)ncc([C@H]3CC[C@H](O)CC3)c2n1` [Compound 129]: the IC50 in test [1] and in test [2] was at most 0.1 µM in each case.

In the case of `CCCCC[C@H](C)Nc1ncc2c(OC3CCNCC3)ncc([C@H]3CC[C@H](O)CC3)c2n1` [Compound 130], the IC50 in test [1] and in test [2] was at most 0.1 µM throughout.

With `CCCCNc1ncc2c(OC3CCN(C)CC3)ncc([C@H]3CC[C@H](O)CC3)c2n1` [Compound 131], the IC50 in test [1] and in test [2] was at most 0.1 µM each time.

For the molecule `O[C@H]1CC[C@H](c2cnc(OC3CCOCC3)c3cnc(NC4CCCC4)nc32)CC1` [Compound 132], the IC50 in test [1] and in test [2] was at most 0.1 µM each time.

In the case of `CCCC(C)Nc1ncc2c(OC3CCOCC3)ncc([C@H]3CC[C@H](O)CC3)c2n1` (stereo partly shown) [Compound 133], the IC50 in test [1] is 0.1 to 1 µM; in test [2], at most 0.1 µM.

Regarding `O[C@H]1CC[C@H](c2cnc(OC3CCOCC3)c3cnc(Nc4ccc(Cl)cc4)nc32)CC1` [Compound 134, (1r,4r)-4-(2-((4-chlorophenyl)amino)-5-((tetrahydro-2H-pyran-4-yl)oxy)pyrido[4,3-d]pyrimidin-8-yl)cyclohexan-1-ol], the IC50 in test [1] and in test [2] was at most 0.1 µM in each case.

Consider `CC(C)Nc1ncc2c(OC3CCNCC3)ncc([C@H]3CC[C@H](O)CC3)c2n1` [Compound 135], for which the IC50 in test [1] and in test [2] was at most 0.1 µM each time.

`O[C@H]1CC[C@H](c2cnc(OC3CCNCC3)c3cnc(N[C@H]4CCOC4)nc32)CC1` [Compound 136]: the IC50 in test [1] was 0.1 to 1 µM; in test [2], at most 0.1 µM.

For `C[C@@H](CO)Nc1ncc2c(OC3CCOCC3)ncc([C@H]3CC[C@H](O)CC3)c2n1` [Compound 137], the IC50 in test [1] lay in the range of 1 to 10 µM; in test [2], 0.1 to 1 µM.

Consider `CCCC(C)Nc1ncc2c(=O)n(C3CCN(S(C)(=O)=O)CC3)cc([C@H]3CC[C@@H](O)CC3)c2n1` (stereo partly shown) [Compound 138], for which the figures for the IC50 in test [1] and in test [2] were 0.1 to 1 µM and at most 0.1 µM, respectively.

With `CCCC(C)Nc1ncc2c(O[C@H]3CC[C@H](O)CC3)ncc([C@H]3CC[C@H](O)CC3)c2n1` (stereo partly shown) [Compound 139], the IC50 is 0.1 to 1 µM in test [1] and at most 0.1 µM in test [2].

As to `CCC(C)Nc1ncc2c(OC3CCOCC3)ncc([C@H]3CC[C@H](O)CC3)c2n1` (stereo partly shown) [Compound 140], the IC50 in test [1] was 0.1 to 1 µM; in test [2], at most 0.1 µM.

As for `CCCC(C)Nc1ncc2c(OC3CCS(=O)(=O)CC3)ncc([C@H]3CC[C@H](O)CC3)c2n1` (stereo partly shown) [Compound 141], the IC50 was 0.1 to 1 µM in test [1] and at most 0.1 µM in test [2].

Consider `CCCC(C)Nc1ncc2c(OC3CCS(=O)(=O)CC3)ncc([C@H]3CC[C@@H](O)CC3)c2n1` (stereo partly shown) [Compound 142], for which the IC50 in test [1] is 1 to 10 µM; in test [2], 0.1 to 1 µM.

Turning to `CCCC(C)Nc1ncc2c(OC3CCN(S(C)(=O)=O)CC3)ncc([C@H]3CC[C@H](O)CC3)c2n1` (stereo partly shown) [Compound 143], the IC50 in test [1] is 0.1 to 1 µM; in test [2], at most 0.1 µM.

For `CC1(C)CC(Nc2ncc3c(OC4CCOCC4)ncc([C@H]4CC[C@H](O)CC4)c3n2)C1` [Compound 144], the IC50 in test [1] and in test [2] was 0.1 to 1 µM throughout.

Regarding `COC[C@@H](C)Nc1ncc2c(OC3CCOCC3)ncc([C@H]3CC[C@H](O)CC3)c2n1` [Compound 145], the values for the IC50 in test [1] and in test [2] were 1 to 10 µM and at most 0.1 µM, respectively.

`CCCC(C)Nc1ncc2c(N(C)C3CCN(C)CC3)ncc([C@H]3CC[C@H](O)CC3)c2n1` (stereo partly shown) [Compound 146]: the values for the IC50 in test [1] and in test [2] were 1 to 10 µM and at most 0.1 µM, respectively.

Take `CCCC(C)Nc1ncc2c(OC3CCC(OC)CC3)ncc([C@H]3CC[C@H](O)CC3)c2n1` (stereo partly shown) [Compound 147]: the IC50 was 0.1 to 1 µM in test [1] and at most 0.1 µM in test [2].

Turning to `CCCC(C)Nc1ncc2c(O[C@H]3CC[C@@H](O)CC3)ncc([C@H]3CC[C@H](O)CC3)c2n1` (stereo partly shown) [Compound 148], the IC50 is 0.1 to 1 µM in test [1] and at most 0.1 µM in test [2].

As for `CCCC(C)Nc1ncc2c(=O)n(C3CCN(CC(=O)N(C)C)CC3)cc([C@H]3CC[C@@H](O)CC3)c2n1` (stereo partly shown) [Compound 149], the concentration for half-maximal inhibition (IC50) was 0.1 to 1 µM in test [1] and at most 0.1 µM in test [2].

On to `CCCC(C)Nc1ncc2c(=O)n(C3CCN(CCOC)CC3)cc([C@H]3CC[C@H](O)CC3)c2n1` (stereo partly shown) [Compound 150], for which the IC50 in test [1] was 0.1 to 1 µM; in test [2], at most 0.1 µM.

In the case of `CCCC(C)Nc1ncc2c(=O)n(C3CCN(CCC(=O)N(C)C)CC3)cc([C@H]3CC[C@H](O)CC3)c2n1` (stereo partly shown) [Compound 151], the IC50 in test [1] was 0.1 to 1 µM; in test [2], at most 0.1 µM.

Regarding `CCC[C@@H](C)Nc1ncc2c(=O)n(C3CCNCC3)cc([C@H]3CC[C@H](O)CC3)c2n1` [Compound 152], the IC50 is 1 to 10 µM in test [1] and at most 0.1 µM in test [2].

As to `CCCC(C)Nc1ncc2c(OC3CCC(F)(F)CC3)ncc([C@H]3CC[C@H](O)CC3)c2n1` (stereo partly shown) [Compound 153], the IC50 lay within 1 to 10 µM in test [1] and 0.1 to 1 µM in test [2].

With `CCCC(C)Nc1ncc2c(NC3CCN(C)CC3)ncc([C@H]3CC[C@H](O)CC3)c2n1` (stereo partly shown) [Compound 154], the half-inhibitory concentration (IC50) in test [1] and in test [2] was at most 0.1 µM throughout.

For the molecule `CCCC(C)Nc1ncc2c(N3CCC(NC)CC3)ncc([C@H]3CC[C@H](O)CC3)c2n1` (stereo partly shown) [Compound 155], the IC50 in test [1] was 0.1 to 1 µM; in test [2], at most 0.1 µM.

Turning to `CCCC(C)Nc1ncc2c(N3CC[C@@H](N(C)C)C3)ncc([C@H]3CC[C@H](O)CC3)c2n1` (stereo partly shown) [Compound 156], the figures for the IC50 in test [1] and in test [2] were 0.1 to 1 µM and at most 0.1 µM, respectively.

As to `CCCC(C)Nc1ncc2c(OC[C@H]3CC[C@@H](O)CC3)ncc([C@H]3CC[C@H](O)CC3)c2n1` (stereo partly shown) [Compound 157], the IC50 in test [1] is 0.1 to 1 µM; in test [2], at most 0.1 µM.

Regarding `CCCC(C)Nc1ncc2c(NC3CCNCC3)ncc([C@H]3CC[C@H](O)CC3)c2n1` (stereo partly shown) [Compound 158], the IC50 in test [1] and in test [2] was at most 0.1 µM in each case.
